According to patent US9464064B2, “HCV helicase inhibitors and methods of use thereof” (University of Kansas, priority 2011, dated 2016):
Like-named read-outs stand apart in the source and are kept apart here.

Columns and labels:
NS3h_2a(JFH1) = target: T1, NS3h_2a(JFH1) (Hepatitis C virus genotype 2a, UniProt Q99IB8); assay: MBHA, DNA substrate, genotype 2a helicase; assay type: biochemical, hepatitis C virus genotype 2a(JFH1)
T1 construct: truncated C-terminally His-tagged NS3 proteins lacking the N-terminal protease, called NS3h; His-tag (C); made in house
Experimental: All oligonucleotides were purchased from Integrated DNA Technologies (IDT, Coralville, Iowa). Primuline derivatives were synthesized and purified as described herein. Three different NS3 proteins were used in this study. Two were truncated C-terminally His-tagged NS3 proteins lacking the N-terminal protease, called NS3h, the third was a full-length NS3 with the portion of NS4A needed for protease activation fused to its N-terminus, called scNS4A-NS3 (Howe, et al. (1999) Protein Sci. 8:1332-41), and the fourth was a 23 kDa scNS4A-NS3 protease fragment lacking the helicase domains, called scNS4A-NS3p (Protein One, Rockville, Md.). NS3h was expressed from two different HCV strains. NS3h_1b(con1) was from the con1 strain of genotype 1b (GENBANK accession AB114136), and NS3h_2a(JFH1) was from the JFH1 strain of HCV genotype 2a (GENBANK accession AJ238799). […] His-tagged recombinant NS3h_1b(con1), NS3h_2a(JFH1), and scNS4A-NS3 (also from genotype 1b(con1)) were expressed, and purified as previously described (Frick, et al. (2010) supra; Lam, et al. (2003) J. Virol. 77:3950-3961). The scNS4A-NS3p (genotype 1b) was from Protein One. A plasmid expressing NS3h from dengue virus strain 2 (NS3h_DV2)(GENBANK accession 2BMF) is known in the art (Xu, et al. (2005) J. Virol. 79:10278-10288), and used to express and purify NS3h_DV2 (Belon, et al. (2010) supra)
Compounds that specifically target less conserved regions of a HCV protein are often not potent inhibitors of the same protein derived from other genotypes, and they might be susceptible to rapid evolution of related viruses. As described herein, primuline derivatives can inhibit HCV helicase isolated from the genotype 1b(con1) strain. Therefore to further analyze specificity, the subset of primuline analogs was tested on the helicase isolated from the genotype 2a(JFH1) strain. The two recombinant proteins differ at 83 of their 480 amino acids. The JHF1 strain is also of interest because it serves as the backbone for HCV strains capable of replicating in cell culture (Wakita, et al. (2005) Nat. Med. 11:791-796). The molecular beacon-based helicase assay (MBHA) (Belon & Frick (2008) supra) was used to measure the ability of each compound to inhibit DNA unwinding catalyzed by NS3h isolated from genotype 2a(JFH1) (NS3h_2a(JFH1)). […] Selected compounds were also tested for the ability to inhibit helicase reactions catalyzed by full-length NS3 and a single chain NS4A-NS3 protein (scNS4A-NS3) described below and used for protease assays.

[1] = target: T2, HCV NS3 helicase NS3h_1b(con1) (Hepatitis C virus genotype 1b, UniProt Q9WMX2); assay: biochemical; assay type: biochemical, hepatitis C virus genotype 1b(con1)
T2 construct: truncated C-terminally His-tagged NS3 proteins lacking the N-terminal protease, called NS3h; His-tag (C); made in house
Procedure, shortened: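 Molecular beacon helicase assay with His-tagged recombinant NS3 and a Cy5/IBRQ-labelled partially duplex DNA substrate (25 bp) or Tye665-labelled RNA substrate (19 bp). Reactions started with 1 mM ATP. Screening read fluorescence before and 30 min after ATP (ex 643/em 670 nm). For IC50, 5% v/v DMSO was present, initial velocities came from first-order decay fits, and a Hill equation was applied.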

Huh-7.5 cells = assay: Cell viability assay ([…]-GLO); assay type: cell-based, human; conditions: for Cell viability (% viable): 10 μM compound, triplicate, average ± SD
Procedure, shortened: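 Huh-7.5 cells exposed to compound for 72 hours, washed, then lysed in a 1:1 mix of growth medium and […]-GLO reagent. After 30 minutes at 23° C., luminescence was read for 1 second as a measure of viability.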

[2] = genotype 2a (JFH1), read-out: Target Potency MBHA (IC50 avg., μM) 2a (JFH1) (converted)
[3] = genotype 1b (con1), read-out: Target Potency MBHA (IC50 avg., μM) 1b (con1)
[4] = standard HCV helicase MBHA (Table 9), read-out: DNA Unwinding IC50
[5] = MBHA, DNA unwinding, mean ± SD of three titrations, read-out: Helicase IC50

T1 sequence (Q99IB8 1196-1661): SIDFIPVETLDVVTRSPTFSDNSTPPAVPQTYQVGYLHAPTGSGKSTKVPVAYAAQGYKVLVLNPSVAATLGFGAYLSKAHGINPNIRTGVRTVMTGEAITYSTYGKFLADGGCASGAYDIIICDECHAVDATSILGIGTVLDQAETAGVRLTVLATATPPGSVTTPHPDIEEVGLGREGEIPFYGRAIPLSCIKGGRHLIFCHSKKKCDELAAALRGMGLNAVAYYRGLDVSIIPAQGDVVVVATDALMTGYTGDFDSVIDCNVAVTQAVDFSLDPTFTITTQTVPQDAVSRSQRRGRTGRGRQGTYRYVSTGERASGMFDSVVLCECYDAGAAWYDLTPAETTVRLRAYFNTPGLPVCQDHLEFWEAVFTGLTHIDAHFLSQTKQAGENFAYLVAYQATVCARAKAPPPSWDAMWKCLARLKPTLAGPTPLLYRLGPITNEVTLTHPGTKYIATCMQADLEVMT
T2 sequence (Q9WMX2 1192-1657): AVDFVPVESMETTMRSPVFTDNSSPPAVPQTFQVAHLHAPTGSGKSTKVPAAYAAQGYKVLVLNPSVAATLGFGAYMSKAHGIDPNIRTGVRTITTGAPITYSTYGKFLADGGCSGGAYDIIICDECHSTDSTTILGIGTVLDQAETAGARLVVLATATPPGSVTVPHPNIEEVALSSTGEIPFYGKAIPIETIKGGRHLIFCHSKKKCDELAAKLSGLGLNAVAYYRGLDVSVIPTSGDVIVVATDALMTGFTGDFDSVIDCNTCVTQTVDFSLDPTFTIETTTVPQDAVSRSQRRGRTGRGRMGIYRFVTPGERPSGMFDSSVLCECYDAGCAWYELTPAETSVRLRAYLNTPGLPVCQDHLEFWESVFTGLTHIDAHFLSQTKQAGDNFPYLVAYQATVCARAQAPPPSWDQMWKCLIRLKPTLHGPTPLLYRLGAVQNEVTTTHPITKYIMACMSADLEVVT

## Cc1ccc2nc(-c3ccc4nc(-c5ccc(NCc6ccccc6)cc5)sc4c3)sc2c1S(=O)(=O)O [Compound 53]
NS3h_2a(JFH1); [2]
  IC50: 13.5 µM
[1]; [3]
  IC50: 11 ± 1.6 µM
[1]; [4]
  IC50: 11 ± 2 µM
Huh-7.5 cells
  Cell Viability (% @ 10 μM): 109 ± 8%

## Cc1ccc2nc(-c3ccc4nc(-c5ccc(NC(=O)Nc6ccccc6)cc5)sc4c3)sc2c1S(=O)(=O)O.N [Compound 52]
NS3h_2a(JFH1); [2]
  IC50: 6 µM
[1]; [3]
  IC50: 4.1 ± 1.3 µM
[1]; [4]
  IC50: 4 ± 1 µM
Huh-7.5 cells
  Cell Viability (% @ 10 μM): 108 ± 4%

## Cc1ccc2nc(-c3ccc4nc(-c5ccc(NC(=O)c6cc(F)ccc6C(F)(F)F)cc5)sc4c3)sc2c1S(=O)(=O)O [Compound 26, 2′-(4-(5-fluoro-2-(trifluoromethyl)benzamido)phenyl)-6-methyl-[2,6′-bibenzo[d]thiazole]-7-sulfonic acid]
NS3h_2a(JFH1); [2]
  IC50: 16.6 ± 2 µM
[1]; [5]
  IC50: 19 ± 15 µM
[1]; [3]
  IC50: 19 ± 15 µM
[1]; [4]
  IC50: 19 ± 15 µM
Huh-7.5 cells
  Cell Viability (% @ 10 μM): 118 ± 4%
  Cell viability (% viable): 118 ± 4%

## Cc1ccc2nc(-c3ccc4nc(-c5ccc(NC(=O)Nc6ccc(F)cc6)cc5)sc4c3)sc2c1S(=O)(=O)O.N [Compound 48]
NS3h_2a(JFH1); [2]
  IC50: 9.9 µM
[1]; [3]
  IC50: 7.8 ± 2.2 µM
[1]; [4]
  IC50: 8 ± 2 µM
Huh-7.5 cells
  Cell Viability (% @ 10 μM): 93 ± 2%

## Cc1ccc2nc(-c3ccc4nc(-c5ccc(NC(=O)c6ccc(Br)cc6)cc5)sc4c3)sc2c1S(=O)(=O)O [Compound 15, 2′-(4-(4-bromobenzamido)phenyl)-6-methyl-[2,6′-bibenzo[d]thiazole]-7-sulfonic acid]
NS3h_2a(JFH1); DNA-based MBHA, genotype 2a(JFH1), read-out: DNA Helicase NS3h_2a IC50 (μM) ± SD
  IC50: 7 ± 3.3 µM
NS3h_2a(JFH1); [2]
  IC50: 7.4 ± 3 µM
[1]; DNA-based MBHA, genotype 1b, read-out: DNA Helicase NS3h_1b IC50 (μM) ± SD
  IC50: 5 ± 3.9 µM
[1]; [5]
  IC50: 5.2 ± 4 µM
[1]; [3]
  IC50: 5.2 ± 4 µM
[1]; [4]
  IC50: 5 ± 4 µM
Huh-7.5 cells
  Cell Viability (% @ 10 μM): 113 ± 5%
  Cell viability (% viable): 113 ± 5%

## Cc1ccc(NC(=O)Nc2ccc(-c3nc4ccc(-c5nc6ccc(C)c(S(=O)(=O)O)c6s5)cc4s3)cc2)cc1 [Compound 28, 6-methyl-2′-(4-(3-(p-tolyl)ureido)phenyl)-[2,6′-bibenzo[d]thiazole]-7-sulfonic acid]
NS3h_2a(JFH1); [2]
  IC50: 4 µM
[1]; [5]
  IC50: 5.3 ± 0.9 µM
[1]; [3]
  IC50: 5.3 ± 0.9 µM
[1]; [4]
  IC50: 5 ± 1 µM
Huh-7.5 cells
  Cell Viability (% @ 10 μM): 93 ± 1%
  Cell viability (% viable): 93 ± 1%

## Cc1ccc2nc(-c3ccc4nc(-c5ccc(NC(=O)c6cccc(C(F)(F)F)c6F)cc5)sc4c3)sc2c1S(=O)(=O)O [Compound 22, 2′-(4-(2-fluoro-3-(trifluoromethyl)benzamido)phenyl)-6-methyl-[2,6′-bibenzo[d]thiazole]-7-sulfonic acid]
NS3h_2a(JFH1); [2]
  IC50: 8.1 ± 2 µM
[1]; [5]
  IC50: 9.2 ± 3 µM
[1]; [3]
  IC50: 9.2 ± 3 µM
[1]; [4]
  IC50: 9 ± 3 µM
Huh-7.5 cells
  Cell Viability (% @ 10 μM): 122 ± 1%
  Cell viability (% viable): 122 ± 1%

## Cc1ccc2nc(-c3ccc(NC(=O)c4ccc(NC(=O)c5ccc(C(F)(F)F)cc5)cc4)cc3)sc2c1S(=O)(=O)O.N [Compound 44]
NS3h_2a(JFH1); [2]
  IC50: 14.7 µM
[1]; [3]
  IC50: 10.4 ± 1.9 µM
[1]; [4]
  IC50: 10 ± 2 µM
Huh-7.5 cells
  Cell Viability (% @ 10 μM): 97 ± 7%

## Cc1ccc2nc(-c3ccc4nc(-c5ccc(N(C)C(=O)c6ccc7ccccc7c6)cc5)sc4c3)sc2c1S(=O)(=O)O [Compound 34, 6-methyl-2′-(4-(N-methyl-2-naphthamido)phenyl)-[2,6′-bibenzo[d]thiazole]-7-sulfonic acid]
NS3h_2a(JFH1); [2]
  IC50: 13.5 µM
[1]; [5]
  IC50: 14 ± 0.1 µM
[1]; [3]
  IC50: 14.4 ± 0.04 µM
[1]; [4]
  IC50: 14 µM
Huh-7.5 cells
  Cell Viability (% @ 10 μM): 101 ± 9%
